We go through 14 compounds from ChEMBL document CHEMBL6078707, “Preferential Synaptic Type of GABA-A Receptor Ligands Enhancing Neuronal Survival and Facilitating Functional Recovery After Ischemic Stroke” (J Med Chem, 2024).

SMILES strings stand for the structures.

Series [1] is described as follows: Permeability of compound in PBS buffer at pH7.4 at 100 uM incubated for 5 hrs by UPLC-MS based PAMPA assay. Format: ADME. Conditions: pH 7.4, read-out: permeability; call rule not given here.
A short description of series [2]: Thermodynamic solubility of compound in phosphate buffer at pH 7.4 at 2 mg measured after 24 hrs by HPLC analysis. The format is physicochemical. The note with it: read-out: Therm_solubility.
Series [3] in a line: Metabolic stability in human liver microsomes assessed as intrinsic clearance. The format is ADME, Microsome. The note with it: read-out: CLH.
A short description of series [4]: MRT in male Sprague-Dawley rat plasma at 3 mg/kg, ip measured after 480 mins by LC-ESI/MS-MS analysis. Format: ADME, organism-based.
Series [5] is described as follows: AUC (0 to t) in male Sprague-Dawley rat plasma at 3 mg/kg, ip measured after 480 mins by LC-ESI/MS-MS analysis. Format: ADME, organism-based.
A short description of series [6]: Volume of distribution in male Sprague-Dawley rat plasma at 3 mg/kg, iv measured after 480 mins by LC-ESI/MS-MS analysis. Format: ADME, organism-based.
The nature of series [7]: Unbound drug concentration in male Sprague-Dawley rat brain at 3 mg/kg, ip measured after 480 mins by LC-ESI/MS-MS analysis. Format: ADME, organism-based. The note with it: in vivo, 8 h.
Series [8] in a line: Terminal half-life in male Sprague-Dawley rat brain at 3 mg/kg, ip measured after 480 mins by LC-ESI/MS-MS analysis. The format is ADME, organism-based. The note with it: read-out: beta t1/2.
Series [9] is described as follows: Drug metabolism in human liver microsomes assessed as hydroxylation mediated metabolite formation by LCMS analysis. Format: ADME, Microsome.
Series [10] in a line: Cmax in male Sprague-Dawley rat brain at 3 mg/kg, ip measured after 480 mins by LC-ESI/MS-MS analysis. The format is ADME, organism-based.
Series [11] in a line: Clearance in male Sprague-Dawley rat plasma at 3 mg/kg, iv measured after 480 mins by LC-ESI/MS-MS analysis. Format: ADME, organism-based.
Series [12] in a line: Permeability across basolateral to apical side in MDCKII-MDR1 cells at pH 7.4. The format is ADME, cell-based, Canis lupus familiaris. Conditions: dog, MDCK-MDR1, pH 7.4.
Series [13] is described as follows: Terminal half-life in male Sprague-Dawley rat plasma at 3 mg/kg, iv measured after 480 mins by LC-ESI/MS-MS analysis. The note with it: read-out: beta t1/2. Format: ADME, organism-based.
Series [14] is described as follows: Terminal half-life in male Sprague-Dawley rat plasma at 3 mg/kg, ip measured after 480 mins by LC-ESI/MS-MS analysis. Format: ADME, organism-based. The note with it: read-out: beta t1/2.
Series [15] can be described thus: Drug distribution in MCAO-reperfusion induced male Sprague-Dawley rat brain at 1.5 mg/kg, ip administered once daily for 3 days starting from 1.5 hrs post reperfusion by DESI mass spectrometric imaging analysis. The format is ADME, organism-based. Conditions: in vivo, 72 h, time 3 day.
Series [16] in a line: Cmax in male Sprague-Dawley rat at 5 mg/kg, ip measured after 480 mins by LC-ESI/MS-MS analysis. The format is ADME, organism-based. The note with it: in vivo.
Series [17] can be described thus: Clearance in male Sprague-Dawley rat at 5 mg/kg, ip measured after 480 mins by LC-ESI/MS-MS analysis. Conditions: in vivo. Format: ADME, organism-based.
The nature of series [18]: Tmax in male Sprague-Dawley rat plasma at 3 mg/kg, ip measured after 480 mins by LC-ESI/MS-MS analysis. The format is ADME, organism-based.
Series [19] is described as follows: MRT in male Sprague-Dawley rat brain at 3 mg/kg, iv measured after 480 mins by LC-ESI/MS-MS analysis. The format is ADME, organism-based.
The nature of series [20]: Unbound drug concentration in male Sprague-Dawley rat plasma at 3 mg/kg, ip measured after 480 mins by LC-ESI/MS-MS analysis. Format: ADME, organism-based. Conditions: in vivo, 8 h.
Series [21] is described as follows: MRT in male Sprague-Dawley rat at 5 mg/kg, ip measured after 480 mins by LC-ESI/MS-MS analysis. Format: ADME, organism-based. Conditions: in vivo.
A short description of series [22]: AUC (0 to t) in male Sprague-Dawley rat brain at 3 mg/kg, iv measured after 480 mins by LC-ESI/MS-MS analysis. Format: ADME, organism-based. Conditions: in vivo, 8 h.
Series [23] is described as follows: Metabolic stability in human liver microsomes assessed as half-life. The format is ADME, Microsome.
A short description of series [24]: MRT in male Sprague-Dawley rat plasma at 3 mg/kg, iv measured after 480 mins by LC-ESI/MS-MS analysis. The format is ADME, organism-based.
The nature of series [25]: AUC (0 to t) in male Sprague-Dawley rat at 5 mg/kg, ip measured after 480 mins by LC-ESI/MS-MS analysis. The note with it: in vivo. The format is ADME, organism-based.
Series [26] in a line: Permeability across apical to basolateral side in MDCKII-MDR1 cells at pH 7.4. The format is ADME, cell-based, Canis lupus familiaris. The note with it: dog, MDCK-MDR1, pH 7.4; read-out: permeability.
A short description of series [27]: Terminal half-life in male Sprague-Dawley rat brain at 3 mg/kg, iv measured after 480 mins by LC-ESI/MS-MS analysis. Format: ADME, organism-based. The note with it: read-out: beta t1/2.
Series [28] in a line: AUC (0 to t) in male Sprague-Dawley rat brain at 3 mg/kg, ip measured after 480 mins by LC-ESI/MS-MS analysis. Format: ADME, organism-based. The note with it: in vivo, 8 h.
The nature of series [29]: Volume of distribution in male Sprague-Dawley rat at 5 mg/kg, ip measured after 480 mins by LC-ESI/MS-MS analysis. The format is ADME, organism-based. The note with it: in vivo, 8 h.
A short description of series [30]: Cmax in male Sprague-Dawley rat plasma at 3 mg/kg, ip measured after 480 mins by LC-ESI/MS-MS analysis. Format: ADME, organism-based.
The nature of series [31]: Terminal half-life in male Sprague-Dawley rat at 5 mg/kg, ip measured after 480 mins by LC-ESI/MS-MS analysis. Format: ADME, organism-based. Conditions: in vivo, read-out: beta t1/2.
The nature of series [32]: Tmax in male Sprague-Dawley rat brain at 3 mg/kg, ip measured after 480 mins by LC-ESI/MS-MS analysis. The format is ADME, organism-based.
The nature of series [33]: AUC (0 to t) in male Sprague-Dawley rat plasma at 3 mg/kg, iv measured after 480 mins by LC-ESI/MS-MS analysis. The format is ADME, organism-based. The note with it: in vivo, 8 h.
A short description of series [34]: Tmax in male Sprague-Dawley rat brain at 3 mg/kg, iv measured after 480 mins by LC-ESI/MS-MS analysis. The format is ADME, organism-based.
Series [35] is described as follows: MRT in male Sprague-Dawley rat brain at 3 mg/kg, ip measured after 480 mins by LC-ESI/MS-MS analysis. The format is ADME, organism-based.
A short description of series [36]: Cmax in male Sprague-Dawley rat brain at 3 mg/kg, iv measured after 480 mins by LC-ESI/MS-MS analysis. Format: ADME, organism-based.
Series [37] can be described thus: Half-life in human plasma. Format: ADME, cell-free.
Series [38] can be described thus: Half-life in male Sprague-Dawley rat at 5 mg/kg, ip by HPLC analysis. The format is ADME, organism-based. Conditions: in vivo.

For `Cc1ccc(-c2nc3ccc(C)cn3c2CC(=O)N(C)C)cc1.Cc1ccc(-c2nc3ccc(C)cn3c2CC(=O)N(C)C)cc1.O=C(O)C(O)C(O)C(=O)O` [ZOLPIDEM TARTRATE], the Papp at 5 h, 100 µM in series [1] was 21.6 ×10⁻⁶ cm/s.

As for `Cc1ccc2nc(-c3ccc(F)cc3)c(CC(=O)N3CCSCC3)n2n1.O=C(O)C(O)C(O)C(=O)O`, the Papp at 5 h, 100 µM in series [1] was determined as 11.7 ×10⁻⁶ cm/s. The solubility thermodynamic at 24 h in [2] amounted to 320 µg/mL.

For `Cc1ccc2nc(-c3ccc(F)cc3)c(CC(=O)N(C)C)n2n1.O=C(O)C(O)C(O)C(=O)O`, the Papp at 5 h, 100 µM in series [1] was determined as 9.79 ×10⁻⁶ cm/s. For the same compound, the solubility thermodynamic at 24 h in series [2] is over 2000 µg/mL.

On to `Cc1ccc2nc(-c3ccc(F)cc3)c(CC(=O)Nc3ccccc3F)n2c1.O=C(O)C(O)C(O)C(=O)O`, for which the Papp at 5 h, 100 µM in series [1] was determined as 6.25 ×10⁻⁶ cm/s.

Regarding `COc1ccc(NC(=O)Cc2c(-c3ccc(F)cc3)nc3ccc(C)nn23)cc1.O=C(O)C(O)C(O)C(=O)O`, in series [1], the Papp at 5 h, 100 µM was found to be 433 ×10⁻⁶ cm/s. For the same compound, the solubility thermodynamic at 24 h in series [2] turned out to be 130 µg/mL.

Consider `CCN1CCCC1CNC(=O)c1cc(S(N)(=O)=O)ccc1OC` (stereo not given) [SULPIRIDE], for which the Papp at 5 h, 100 µM in [1] was 0.016 ×10⁻⁶ cm/s.

Regarding `Cc1ccc2nc(-c3ccc(F)cc3)c(CC(=O)N3CCOCC3)n2n1.O=C(O)C(O)C(O)C(=O)O`, in series [1], the Papp at 5 h, 100 µM is 9.99 ×10⁻⁶ cm/s. Further, the solubility thermodynamic at 24 h in series [2] is 1590 µg/mL.

On to `COc1ccc(NC(=O)Cc2c(-c3ccc(F)cc3)nc3ccc(C)cn23)cc1.O=C(O)C(O)C(O)C(=O)O`, for which, in series [1], the Papp at 5 h, 100 µM was determined as 1.03 ×10⁻⁶ cm/s.

`Cc1ccc2nc(-c3ccc(F)cc3)c(CC(=O)Nc3ccccc3)n2c1.O=C(O)C(O)C(O)C(=O)O`: the Papp at 5 h, 100 µM in [1] turned out to be 5.29 ×10⁻⁶ cm/s.

For `Cn1c(=O)c2c(ncn2C)n(C)c1=O` [CAFFEINE], the Papp at 5 h, 100 µM in series [1] stood at 15.2 ×10⁻⁶ cm/s.

Consider `Cc1ccc2nc(-c3ccc(F)cc3)c(CC(=O)Nc3ccc(F)cc3)n2c1.O=C(O)C(O)C(O)C(=O)O`, for which the Papp at 5 h, 100 µM in [1] was 6.06 ×10⁻⁶ cm/s.

Consider `Cc1ccc2nc(-c3ccc(F)cc3)c(CC(=O)N3CCCC3)n2c1.O=C(O)C(O)C(O)C(=O)O`, for which, in series [3], the microsomal CLint is 9.8 µL/min/mg. The MRT in series [4] is 50.9 min; in series [19], 65.5 min; in series [21], 27.6 min; in [24], 39.7 min; in series [35] it was 102 min. Further, the AUC(0-t) at 8 h in [5] is 2140 ng·h/mL; in series [25], 39 ng·h/mL. In addition, the Vd is 0.383 L/kg in series [6] and 0.104 L/kg in series [29]. Moreover, in series [7], the “Cp(f)” value is recorded as 348.03 nM. For the same compound, the half-life in [8] was found to be 653 min; in series [13], 47.8 min; in [14], 270 min; in [23], 176 min; in series [27] it was 135 min; in series [31], 30.6 min. Further, the Drug metabolism result in series [9] is “metabolite_detected”. Further, the Cmax in series [10] came out at 220 ng/g; in [16], 2340 ng/mL; in series [30], 4500 ng/mL; in series [36], 445 ng/g. The clearance in series [11] was found to be 5.56 mL/min/kg. In series [12], this compound came in with a Papp B→A of 29.7 ×10⁻⁶ cm/s. The Drug uptake result in [15] was “Active”. Further, in series [1], the Papp at 5 h, 100 µM came out at 29.7 ×10⁻⁶ cm/s. Besides, in series [2], the solubility thermodynamic at 24 h was determined as 1870 µg/mL. In [17], the CL/F was 2.35 mL/min. In addition, the Tmax in series [18], in series [32] and in series [34] was 5 min throughout. Besides, the “Drug uptake(free)” value in series [20] was determined as 2482.75 nM. Further, the AUCt was 15265 ng·min/g in series [22], 8229 ng·min/g in [28] and 538253 ng·min/g in series [33]. In addition, the Papp A→B in series [26] amounted to 55.6 ×10⁻⁶ cm/s.

With `Cc1ccc(-c2nc3ccc(C)cn3c2CC(=O)N(C)C)cc1` [ZOLPIDEM], the half-life in series [37] is 120 min; in [38] it was 30.6 min. Besides, the solubility thermodynamic at 24 h in series [2] was over 2000 µg/mL.

For `Cc1ccc2nc(-c3ccc(F)cc3)c(CC(=O)N3CCCC3)n2n1.O=C(O)C(O)C(O)C(=O)O`, the Papp at 5 h, 100 µM in series [1] came to 22.9 ×10⁻⁶ cm/s.
